Measurements as given in patent US20210353595A1, “USE OF MELATONIN IN PREPARATION OF MEDICAMENT FOR INHIBITING AND/OR KILLING BACTERIUM” (priority 2020, published 2021).

Target: T1, citrate synthase in lung epithelial cells (Mus musculus, UniProt Q9CZU6)
T1 construct: lysed by ultrasound at a low temperature, and then the enzyme activity of citrate synthase was analyzed; endogenous in cells; host or cells: mouse lung epithelial cells
Test: Citrate synthase enzyme activity in lung epithelial cells
Format: cell-based
Conditions: melatonin up to 40 mg/mL; 1MOI Pasteurella multocida, 12 h; FIG. 26
Description: 2×10^5 mouse lung epithelial cells per well were inoculated into a 48-well microplate, and cultured in a 5% CO2 incubator at 37° C. until full confluence of the cells. The non-adherent cells were washed away with 1×PBS, and the cells were treated with melatonin with the final concentrations of 1, 2, 3, 10, 20 and 40 mg/ml, while the control group was treated with the same volume of DMSO. After melatonin treatment for 30 min, 1MOI Pasteurella multocida was added into the culture medium for continue culture. After 12 h, the bacterial cells were collected, lysed by ultrasound at a low temperature, and then the enzyme activity of citrate synthase was analyzed. For specific test steps, please refer to the kit for detecting the enzyme activity of the citrate synthase. Each experiment was repeated three times, and each group was set in hexaplicate.

T1 sequence (Q9CZU6 28-464): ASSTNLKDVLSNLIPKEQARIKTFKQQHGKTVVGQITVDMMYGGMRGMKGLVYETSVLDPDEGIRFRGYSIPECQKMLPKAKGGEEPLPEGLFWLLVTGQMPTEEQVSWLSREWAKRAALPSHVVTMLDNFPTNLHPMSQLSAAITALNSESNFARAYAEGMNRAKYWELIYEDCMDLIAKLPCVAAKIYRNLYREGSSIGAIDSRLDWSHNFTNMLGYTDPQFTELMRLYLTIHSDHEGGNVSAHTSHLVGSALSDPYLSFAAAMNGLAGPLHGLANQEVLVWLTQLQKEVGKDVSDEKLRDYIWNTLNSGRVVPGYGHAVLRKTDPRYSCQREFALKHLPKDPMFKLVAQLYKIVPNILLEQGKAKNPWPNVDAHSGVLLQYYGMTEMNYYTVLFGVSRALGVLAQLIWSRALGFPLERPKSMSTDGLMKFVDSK

COc1ccc2[nH]cc(CCNC(C)=O)c2c1 [melatonin, N-acetyl-5-methoxytryptamine]
enzyme activity of citrate synthase in lung epithelial cells: did not affect
